Source: patent publication US20050118310A1, “Formulations of compounds derived from natural sources and their use with irradiation for food preservation” (priority 2001, published 2005)
Marks after values point to notes of the source that are not given here.

Legend:
[1] = test system: Six pathogenic and spoilage bacteria, commonly found in meat and meat products; experiment: MIC in artificial culture media (1 log reduction); assay type: cell-based
Method: The concentration ot each active compound added to the meat samples was based on results obtained in a previous experiment. These concentrations represent the minimum inhibitory concentrations (MIC) of the active compounds required to be present in artificial culture media in order to reduce by 1 log the number of bacteria in culture. Six pathogenic and spoilage bacteria, commonly found in meat and meat products, were tested. […] The concentration used for carnosine (1.0%) was selected from the literature (Sebranek, 1999). The concentrations of BHA (0.01%), BHT (0.01%), EDTA (100 ppm), and tetrasodium pyrophosphate (0.1%) corresponded to the concentrations recommended by the Canadian Food Inspection Agency (CFIA).
This value was detennined by testing six pathogenic and spoilage bacteria, commonly found in meat and meat products.

[2] = test system: S. typhi; experiment: MIC (D10 %) of active compounds in ground beef, S. typhi; assay type: cell-based, Salmonella typhi (ATCC 19430); details: non-irradiated ground beef, 10^5 CFU/g, stored at 4° C. for 24 hours; % w/w or v/w
Method: (§1) Escherichia coli (ATCC 25922) and Salmonella typhi (ATCC 19430) were obtained from the American Type Culture Collection (Rockville, Md., USA) and maintained at −80° C. in Tryptic Soy Broth (TSB; Difco Laboratory, Detroit, Mich.) containing glycerol (10%; v/v). Before each experiment, stock cultures were subcultured through two consecutive 24 h growth cycles in TSB at 35° C. to obtain working cultures containing approximately 10^9 UCF/ml for E. coli and S. typhi.
(§2) Samples were homogenised for 2 min in sterile peptone water (0.1%) using a Lab-blender 400 stomacher (Laboratory Equipment, London, UK). From this mixture, serial dilutions were prepared and appropriate ones were pour-plated in tryptic soy agar (TSA) (Difco, Laboratories, Detroit, Mich., USA) and incubated at 35° C., 24 hours for the numeration of E. coli and S. typhi.
(§3) D10 deteriiination: The kinetics of bacteria destruction by irradiation with or without the active compounds and under different packaging conditions was evaluated by linear regression. Bacterial counts (log CFU/ml) were plotted against irradiation doses or compound concentrations and the D10 values were calculated using SigmaPlot program. Statistical analysis was done using SPSS program. The Duncan test was used with a probability of 0.05.
(§4) The MIC values for the active compounds were determined on the basis of their antibacterial effectiveness in meat. Concentrations retained were those to reduce by 1 log CFU the population of E. coli or S. typhi in ground beef. Ground beef samples weighing 200 g were contaminated with working cultures of E. coli or S. typhi to obtain a final concentration of 10^5 CFU/g. The ground beef samples containing micro-organisms was mixed during 3 minutes at medium speed in a 4L-conmmercial blender (Waring Products, New Hartford, Col., USA) and different concentrations of the active compounds were incorporated, followed by another 3 minutes period mixing. Sterile petri plates (60×15 mm) were filled with ground beef samples containing micro-organisms and different concentrations of active compounds in portion of 25 g each and stored at 4° C. for 24 hours.
(§5) In addition to the above compounds, minimal concentrations of different types of commercial Herbalox® and Duralox® required to reduce by 1 log the bacterial population of E. coli in ground beef were evaluated. […] However, an estimation of the minimal concentration was calculated using the slope of the curve.

[3] = test system: E. coli; experiment: MIC (D10 %) of active compounds in ground beef, E. coli; assay type: cell-based, Escherichia coli (ATCC 25922); details: non-irradiated ground beef, 10^5 CFU/g, stored at 4° C. for 24 hours; % w/w or v/w
Method: as §1, §2, §3, §4, §5

[4] = test system: S. typhi; experiment: Irradiation sensitivity (D10) of S. typhi in ground beef; assay type: cell-based, Salmonella typhi (ATCC 19430)
[5] = test system: E. coli; experiment: Irradiation sensitivity (D10) of E. coli in ground beef; assay type: cell-based, Escherichia coli (ATCC 25922)
[6] = test system: E. coli; experiment: Irradiation sensitivity of E. coli in chicken breast; assay type: cell-based, Escherichia coli (ATCC 25922); details: trans-cinnamaldehyde 0.050%, thymol 0.038%, tetrasodium pyrophosphate 0.003%, carvacrol 0.029%
[7] = test system: S. typhi; experiment: Irradiation sensitivity of S. typhi in chicken breast; assay type: cell-based, Salmonella typhi (ATCC 19430)
[8] = ground beef, air, 4° C., lower concentration: tannic acid 0.38%, nisin 625 UI/g, EDTA 100 ppm, carvacrol […], tetrasodium pyrophosphate 0.1%, trans-cinnamaldehyde […], thymol 0.1%, thyme 0.2%, BHT 0.01%, BHA 0.01%, rosemary 0.5%, carnosine 1.0%, ascorbic acid 0.5%
[9] = vs control, ground beef, air, 4° C., tannic acid 0.38%, nisin 625 UI/g, EDTA 100 ppm, carvacrol […], tetrasodium pyrophosphate 0.1%, trans-cinnamaldehyde […], thymol 0.1%, thyme 0.2%, BHT 0.01%, BHA 0.01%, rosemary 0.5%, carnosine 1.0%, ascorbic acid 0.5%
[10] = ground beef, air, 4° C., lower concentration: thymol 0.1%, tannic acid 0.38%, rosemary 0.5%, BHT 0.01%, trans-cinnamaldehyde […], carvacrol […], thyme 0.2%, BHA 0.01%, nisin 625 UI/g, EDTA 100 ppm, tetrasodium pyrophosphate 0.1%, carnosine 1.0%, ascorbic acid 0.5%
[11] = vs control, negative = protective effect, ground beef, air, 4° C., thymol 0.1%, tannic acid 0.38%, rosemary 0.5%, BHT 0.01%, trans-cinnamaldehyde […], carvacrol […], thyme 0.2%, BHA 0.01%, nisin 625 UI/g, EDTA 100 ppm, tetrasodium pyrophosphate 0.1%, carnosine 1.0%, ascorbic acid 0.5%

| Compound | D10 (%): minimal concentration of active compound required to reduce S. typhi population by 1 log in ground beef [2] | D10 (%): minimal concentration of active compound required to reduce E. coli population by 1 log in ground beef [3] | D10(kGy) [4, 8] | Increase in Sensitivity [4, 9] [%] | D10(kGy) [5, 10] | Increase in Sensitivity [5, 11] [%] | further results |
| --- | --- | --- | --- | --- | --- | --- | --- |
| O=C1O[C@H]([C@@H](O)CO)C(O)=C1O [Ascorbic acid] | 1.83 ± 0.06^ab % | 2.71 ± 0.26^b % | – | – | – | – | Mean values of MIC (concentration required in artificial culture media to reduce by 1 log the number of bacteria) [1]: 0.5% |
| COc1ccc(O)c(C(C)(C)C)c1 [BHA, butylated hydroxyanisole] | – | – | 0.407 ± 0.0123^h kGy | 22.6 | 0.117 ± 0.0026^ef kGy | 7.1 | – |
| O=C(O)CN(CCN(CC(=O)O)CC(=O)O)CC(=O)O [EDTA] | – | – | – | – | – | – | D10(kGy) [4]: 0.419 ± 0.0198^hi kGy; Increase in Sensitivity [4]: 20.3%; D10(kGy) [5]: 0.127 ± 0.0033^gh kGy; Increase in Sensitivity [5]: −0.8% |
| O=C(OC[C@H]1O[C@@H](OC(=O)c2cc(O)c(O)c(OC(=O)c3cc(O)c(O)c(O)c3)c2)[C@H](OC(=O)c2cc(O)c(O)c(OC(=O)c3cc(O)c(O)c(O)c3)c2)[C@@H](OC(=O)c2cc(O)c(O)c(OC(=O)c3cc(O)c(O)c(O)c3)c2)[C@@H]1OC(=O)c1cc(O)c(O)c(OC(=O)c2cc(O)c(O)c(O)c2)c1)c1cc(O)c(O)c(OC(=O)c2cc(O)c(O)c(O)c2)c1 [Tannic acid, tannic acid] | 21.18 ± 2.07^d % | 11.15 ± 2.04^c % | – | – | – | – | – |
| O=P([O-])([O-])OP(=O)([O-])[O-].[Na+].[Na+].[Na+].[Na+] [Tetrasodium pyrophosphate, tetrasodium pyrophosphate] | – | – | – | – | – | – | D10(kGy) ([6]; chicken breast, 4° C.): 0.141 ± 0.012^bc kGy; irradiation dose necessary to completely eliminate E. coli from the chicken breast [6]: 0.75 kGy; Increase in Sensitivity ([6]; vs control, chicken breast): 2.7%; D10(kGy) ([7]; chicken breast, 4° C., trans-cinnamaldehyde 0.030%, tetrasodium pyrophosphate 0.003%, carvacrol 0.038%, thymol […]): 0.520 ± 0.030^b kGy; factor by which the effect was reduced in the chicken breast ([7]; concentration of 1/30 of the MIC value in ground beef, compared with ground beef at MIC): 1.5; irradiation dose necessary to completely eliminate S. typhi from the chicken breast ([7]; trans-cinnamaldehyde 0.030%, tetrasodium pyrophosphate 0.003%, carvacrol 0.038%, thymol […]): 2.6 kGy; Increase in Sensitivity ([7]; vs control, chicken breast, trans-cinnamaldehyde 0.030%, tetrasodium pyrophosphate 0.003%, carvacrol 0.038%, thymol […]): 19.1% |
| nisin | – | – | 0.420 ± 0.0040^hi kGy | 20.2 | 0.120 ± 0.0089^efg kGy | 4.8 | – |
